Source: patent US20060099284A1, “Composition containing an extract of fructus psoraleae for inhibiting anxiety and depression, improving memory and treating dementia” (priority 2004, published 2006)

Tested on: male ICR mouse
Test: Passive avoidance test: dementia treatment test (scopolamine)
Type: in vivo
Conditions: scopolamine 1 mg/kg intraperitoneally after training; test after 24 hours; FIG. 5B
Procedure: A passive avoidance test was carried out using a Gemini avoidance system (San Diego Instruments, USA) one hour after extracts (fraction T, fraction C, fraction CM, or fraction M) of Fructus Psoraleae were orally administered to a male ICR mouse (20 g) in a dose of 10 mg/kg. The test was modified on the basis of a method by Kumar, et al. and carried out as follows (Kumar, V., Singh, P. N., Muruganandan, A. V., Bhattacharya, Effect of Indian Hypericum perforatum Linn on animal models of cognitive dysfunction; J Ethnopharmacology 72, p 119-128, 2000).
On the first day of a training test, a mouse was put into the bright box to be acclimated for 300 seconds, prior to moving the mouse into a dark box by automatically opening a door. If the mouse moved into a dark box, it was electrically stimulated one second at 0.3 mA. As soon as a training session was finished, scopolamine was intraperitoneally administered in a dose of 1 mg/kg. At the test after 24 hours, the mouse was acclimated in the bright box for 300 seconds, prior to moving the mouse into the dark box by opening a door. The time to move into the dark box was measured at this time. […]

## CN1[C@@H]2C[C@@H](OC(=O)[C@H](CO)c3ccccc3)C[C@H]1[C@@H]1O[C@@H]12 [scopolamine]
  memory failure compared with a control group: 66.6%
